In article PMC4913266, “Crystal structure of MytiLec, a galactose-binding lectin from the mussel Mytilus galloprovincialis with cytotoxicity against certain cancer cell types” (Scientific Reports, 2016):

Columns and labels:
MytiLec [1] = target: T1, MytiLec (Mytilus galloprovincialis, UniProt B3EWR1, T39A); assay: ITC, single-site model; format: binding; conditions: 10 mM HEPES pH 7.4, 100 mM NaCl, 298 K; averaged over three sites per monomer (one type of independent site)
T1 construct: full-length from codon-optimised synthetic gene, initial Thr changed to Ala; N-terminal His6 tag cut by thrombin, product begins GSHMATF; E. coli BL21(DE3) RILP; homodimer 34 kDa
T1 sequence (B3EWR1 39-187 T39A): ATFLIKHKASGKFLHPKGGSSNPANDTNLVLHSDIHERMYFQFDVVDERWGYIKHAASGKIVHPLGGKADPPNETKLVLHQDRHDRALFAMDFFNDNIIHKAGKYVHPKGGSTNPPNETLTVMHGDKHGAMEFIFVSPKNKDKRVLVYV

MytiLec [2] = target: T1, MytiLec; assay: ITC, single-site model; crystal structure […] Å; format: binding; conditions: 10 mM HEPES pH 7.4, 100 mM NaCl, 298 K; averaged over three sites per monomer (one type of independent site); crystal shows alpha anomer at all six sites of the dimer
[3] = target: Recombinant MytiLec (Mytilus galloprovincialis); assay: AUC; sedimentation velocity, 50 mM potassium phosphate pH 7.4, 0.1 M NaCl, 293 K, 50,000 rpm, absorbance at 280 nm, c(s) converted to c(M); wild-type protein
[4] = target: MytiLec(F93DF94S) (Mytilus galloprovincialis)

Question: `OC[C@H]1OC(O)[C@H](O)[C@@H](O)[C@H]1O` (stereo partly shown) [galactose] was tested. Which Kd (MytiLec [1]) did it give?
Answer: Its Kd is 200 µM.

Question: `CC(=O)N[C@H]1C(O)O[C@H](CO)[C@H](O)[C@@H]1O` (stereo partly shown) [GalNAc] was tested. Which Kd (MytiLec [2]) did it give?
Answer: Its Kd is 130 µM.

Question: Which stoichiometry N [3] does the source give for Recombinant MytiLec (natural protein) here?
Answer: Its stoichiometry N is 2.

Question: With MytiLec(F93DF94S) (natural protein) as the molecule, how does the haemagglutination activity on rabbit erythrocytes, monomer mutant against the dimer (times less than the dimer) [4] read?
Answer: Its haemagglutination activity on rabbit erythrocytes, monomer mutant against the dimer (times less than the dimer) is 10.
